# Experimental data reported in publication PMC6171417, “Carbonic anhydrase inhibition with a series of novel benzenesulfonamide-triazole conjugates” (Journal of Enzyme Inhibition and Medicinal Chemistry, 2018).
# Columns and labels:
# [1] = system: SR; assay: cells; parameters: species or system NCI human tumour cell line panel; details: Homo sapiens, SR; growth inhibition (GI%), single dose
# [2] = system: MOLT-4; assay: cells; parameters: species or system NCI human tumour cell line panel; details: Homo sapiens, MOLT-4; growth inhibition (GI%), single dose
# [3] = system: HOP-62; assay: cells; parameters: species or system NCI human tumour cell line panel; details: Homo sapiens, HOP-62; growth inhibition (GI%), single dose
# [4] = system: UACC-257; assay: cells; parameters: species or system NCI human tumour cell line panel; details: Homo sapiens, UACC-257; growth inhibition (GI%), single dose
# [5] = system: A549/ATCC; assay: cells; parameters: species or system NCI human tumour cell line panel; details: Homo sapiens, A549; growth inhibition (GI%), single dose
# [6] = system: EKVX; assay: cells; parameters: species or system NCI human tumour cell line panel; details: Homo sapiens, EKVX; growth inhibition (GI%), single dose
# [7] = system: SNB-19; assay: cells; parameters: species or system NCI human tumour cell line panel; details: Homo sapiens, SNB-19; growth inhibition (GI%), single dose
# [8] = system: A498; assay: cells; parameters: species or system NCI human tumour cell line panel; details: Homo sapiens, A498; growth inhibition (GI%), single dose
# [9] = biological target: T1, hCA I (Homo sapiens, UniProt P00915); assay: stopped-flow CO2 hydrase assay; assay type: biochemical
# T1 construct: gene CA1; recombinant, obtained in-house as reported earlier; cytosolic
# T1 sequence (P00915 2-261): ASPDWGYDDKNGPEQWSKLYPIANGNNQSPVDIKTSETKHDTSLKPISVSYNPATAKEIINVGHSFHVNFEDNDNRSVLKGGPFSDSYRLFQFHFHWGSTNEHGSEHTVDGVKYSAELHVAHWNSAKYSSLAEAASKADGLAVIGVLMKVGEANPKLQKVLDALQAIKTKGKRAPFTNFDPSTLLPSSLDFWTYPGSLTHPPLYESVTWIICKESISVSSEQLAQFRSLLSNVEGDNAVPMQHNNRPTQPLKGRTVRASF
# From the text: stopped-flow CO2 hydrase assay on hCA I
# [10] = system: NCI/ADR-RES; assay: cells; parameters: species or system NCI human tumour cell line panel; NCI one-dose anti-proliferative screen, human tumour cell line panel, growth inhibition percent (GI%); details: Homo sapiens, NCI/ADR-RES; growth inhibition (GI%), single dose
# Experimental: (§1) Ten of the newly synthesised 1,2,3-triazolo benzenesulfonamide derivatives were selected by NCI (Bethesda, MD) for evaluating their anti-proliferative activity. The selected compounds were subjected to a primary in vitro one-dose ([…]) anti-proliferative assay against 57 human tumour cell lines following the previously reported method[30] and their obtained growth inhibition percent (GI%) are presented in Table 2. A subset of ten triazolo-benzenesulfonamides (3, 5, 6, 7, 9, 11, 16–18, and 20) were selected and subjected to an in vitro anti-proliferative screening against a panel of 57 cancer cell lines at NCI at an initial high dose ([…]). The human cell lines used were derived from nine cancer types: leukaemia, lung, colon, CNS, melanoma, ovarian, renal, prostate and breast cancers.
# [11] = system: M14; assay: cells; parameters: species or system NCI human tumour cell line panel; NCI one-dose anti-proliferative screen, human tumour cell line panel, growth inhibition percent (GI%); details: Homo sapiens, M14; growth inhibition (GI%), single dose
# Experimental: as §1
# [12] = system: SF-539; assay: cells; parameters: species or system NCI human tumour cell line panel; NCI one-dose anti-proliferative screen, human tumour cell line panel, growth inhibition percent (GI%); details: Homo sapiens, SF-539; growth inhibition (GI%), single dose
# Experimental: as §1
# [13] = system: MALME-3M; assay: cells; parameters: species or system NCI human tumour cell line panel; NCI one-dose anti-proliferative screen, human tumour cell line panel, growth inhibition percent (GI%); details: Homo sapiens, Malme-3M; growth inhibition (GI%), single dose
# Experimental: as §1
# [14] = system: SW-620; assay: cells; parameters: species or system NCI human tumour cell line panel; NCI one-dose anti-proliferative screen, human tumour cell line panel, growth inhibition percent (GI%); details: Homo sapiens, SW-620; growth inhibition (GI%), single dose
# Experimental: as §1
# [15] = system: HCC-2998; assay: cells; parameters: species or system NCI human tumour cell line panel; NCI one-dose anti-proliferative screen, human tumour cell line panel, growth inhibition percent (GI%); details: Homo sapiens, HCC 2998; growth inhibition (GI%), single dose
# Experimental: as §1
# [16] = system: SK-MEL-2; assay: cells; parameters: species or system NCI human tumour cell line panel; NCI one-dose anti-proliferative screen, human tumour cell line panel, growth inhibition percent (GI%); details: Homo sapiens, SK-MEL-2; growth inhibition (GI%), single dose
# Experimental: as §1
# [17] = system: MDA-MB-468; assay: cells; parameters: species or system NCI human tumour cell line panel; NCI one-dose anti-proliferative screen, human tumour cell line panel, growth inhibition percent (GI%); details: Homo sapiens, MDA-MB-468; growth inhibition (GI%), single dose
# Experimental: as §1
# [18] = system: OVCAR-4; assay: cells; parameters: species or system NCI human tumour cell line panel; NCI one-dose anti-proliferative screen, human tumour cell line panel, growth inhibition percent (GI%); details: Homo sapiens, OVCAR-4; growth inhibition (GI%), single dose
# Experimental: as §1
# [19] = system: TK-10; assay: cells; parameters: species or system NCI human tumour cell line panel; NCI one-dose anti-proliferative screen, human tumour cell line panel, growth inhibition percent (GI%); details: Homo sapiens, TK-10; growth inhibition (GI%), single dose
# Experimental: as §1
# [20] = system: COLO 205; assay: cells; parameters: species or system NCI human tumour cell line panel; NCI one-dose anti-proliferative screen, human tumour cell line panel, growth inhibition percent (GI%); details: Homo sapiens, COLO 205; growth inhibition (GI%), single dose
# Experimental: as §1
# [21] = system: SF-295; assay: cells; parameters: species or system NCI human tumour cell line panel; NCI one-dose anti-proliferative screen, human tumour cell line panel, growth inhibition percent (GI%); details: Homo sapiens, SF-295; growth inhibition (GI%), single dose
# Experimental: as §1
# [22] = system: HCT-15; assay: cells; parameters: species or system NCI human tumour cell line panel; NCI one-dose anti-proliferative screen, human tumour cell line panel, growth inhibition percent (GI%); details: Homo sapiens, HCT-15; growth inhibition (GI%), single dose
# Experimental: as §1
SMILES,Ki [9],inhibition at 10 µM [10],inhibition at 10 µM [11],inhibition at 10 µM [12],inhibition at 10 µM [13],inhibition at 10 µM [14],inhibition at 10 µM [16],inhibition at 10 µM [17],inhibition at 10 µM [18],inhibition at 10 µM [21],inhibition at 10 µM [22],other results
"N#Cc1nnn(-c2ccc(S(N)(=O)=O)cc2)c1NC(=O)CCl [compound 5, 5]",–,–,–,–,–,–,–,–,–,–,–,inhibition at 10 µM [1]: 4.1%; inhibition at 10 µM [2]: 7.7%; inhibition at 10 µM [3]: 7.9%; inhibition at 10 µM [4]: 11.1%; inhibition at 10 µM [5]: 7.2%; inhibition at 10 µM [6]: 8.6%; inhibition at 10 µM [7]: 3.8%; inhibition at 10 µM [8]: 8.6%
"N#Cc1nnn(-c2ccc(S(N)(=O)=O)cc2)c1NS(=O)(=O)c1ccccc1 [compound 11, N-(4-cyano-1-(4-sulfamoylphenyl)-1H-1,2,3-triazol-5-yl)benzenesulfonamide]",5550 nM,3.2%,3.3%,3.2%,1.2%,2.3%,–,–,–,–,–,–
"CCn1c(=S)[nH]c2c(nnn2-c2ccc(S(N)(=O)=O)cc2)c1=N [compound 20, 4-(6-ethyl-7-imino-5-thioxo-4,5,6,7-tetrahydro-3H-[1,2,3]triazolo[4,5-d]pyrimidin-3-yl)benzenesulfonamide]",909 nM,2.2%,–,–,–,–,8.2%,–,–,–,–,inhibition at 10 µM [15]: 2.2%
"Nc1nc(=S)[nH]c2c1nnn2-c1ccc(S(N)(=O)=O)cc1 [compound 18, 4-(7-amino-5-thioxo-4,5-dihydro-3H-[1,2,3]triazolo[4,5-d]pyrimidin-3-yl)benzenesulfonamide]",955 nM,–,–,–,–,4.3%,–,3.5%,7.9%,–,–,–
"N#Cc1nnn(-c2ccc(S(N)(=O)=O)cc2)c1N [compound 3, 3]",–,–,2.7%,1.9%,–,5.1%,–,–,4.1%,–,–,inhibition at 10 µM [19]: 9.2%; inhibition at 10 µM [20]: 5.1%
"N#Cc1nnn(-c2ccc(S(N)(=O)=O)cc2)c1/N=C/c1ccc(Cl)cc1 [compound 9, 9]",–,5.4%,–,–,–,–,–,–,–,0.3%,4.3%,inhibition at 10 µM [19]: 7.6%
"N#Cc1nnn(-c2ccc(S(N)(=O)=O)cc2)c1NCC(=O)c1ccccc1 [compound 7, 7]",–,–,2.6%,–,3.6%,2.8%,2.2%,3.3%,10.2%,–,1.7%,–
"CN(C)c1ccc(-c2nc3c(nnn3-c3ccc(S(N)(=O)=O)cc3)c(N)c2C#N)cc1 [compound 17, 4-(7-amino-6-cyano-5-(4-(dimethylamino)phenyl)-3H-[1,2,3]triazolo[4,5-b]pyridin-3-yl)benzenesulfonamide]",683 nM,–,3.5%,2.7%,0.4%,2.7%,2.3%,3.2%,0.8%,3.1%,1.2%,inhibition at 10 µM [15]: 3.9%; inhibition at 10 µM [20]: 17%
"N#Cc1c(-c2ccc(Cl)cc2)nc2c(nnn2-c2ccc(S(N)(=O)=O)cc2)c1N [compound 16, 4-(7-amino-5-(4-chlorophenyl)-6-cyano-3H-[1,2,3]triazolo[4,5-b]pyridin-3-yl)benzenesulfonamide]",605 nM,4.2%,–,–,–,–,–,–,21.6%,5.7%,1.6%,–
